Reference: US9856298B2 (priority 2011, dated 2018)
≈ marks a conversion by molar mass, not a printed value. Where two headings read alike, the source gives them in different places. Square brackets hold non-standard residues; d marks the D form. Primed or numbered codes have the meaning given here. Peptide text beside a SMILES is read from it. * marks the point of attachment. Orn(α-tetramethylguanidino) = CN(C)C(=N[C@@H](CCCN)C(=O)*)N(C)C; Guan″ = guanidino group at the N-terminus, N=C(N)*; tPEG5000 = PEG of 5000 linked via thiol group; Guan = N-guanidino (N-terminal), N=C(N)*; Hyp = O=C(O)[C@@H]1C[C@@H](O)CN1; Tle = CC(C)(C)[C@H](N)C(=O)O; Orn = NCCC[C@H](N)C(=O)O

Key:
[1] = test system: Escherichia coli strain BL21AI; assay: Minimum inhibitory concentration in 1% TSB; assay type: cell-based; settings: E. coli BL21AI, 1% TSB, 20 hours at 37° C.
Method: (§1) To that end, the peptides were dissolved in water and diluted in a two-fold dilution series with 1% aqueous soybean medium (TSB) in sterile 96-well plates (Greiner Bio-One GmbH) from 128 μg/ml in twelve dilution steps to 62.5 ng/ml. Overnight cultures of Escherichia coli strain BL21AI were adjusted with 1% TSB to about […] colony forming units per ml. In each case 50 μl of peptide solution per well were then mixed with in each case 50 μl of the bacteria solution, in order to achieve a starting concentration of 4×10^5 bacteria per well. After incubation for 20 hours at 37° C., the absorption at 595 nm was determined (microplate reader, TECAN Trading AG).

[2] = mouse; for uncleaved peptide remaining after the indicated time (instead of half-life): serum, 15 µg/ml
Method: 30 μl of a 1 mg/ml peptide solution were diluted with 120 μl of water and, after addition of 50 of serum, incubated at 37° C. for 0 hours, 0.5 hour, 1 hour, 2 hours or 4 hours. Alternatively, the peptide derivatives having a starting concentration of 3 mg/ml were diluted with serum to a final concentration of 15 μg/ml. According to the stability of the peptides, the samples were analysed at the times mentioned above or after 0 hours, 4 hours and 6 hours. The serum proteins were precipitated by addition of 50 μl of 15% TCA, and the supernatant was neutralised with 25 μl of 1 mol/l NaOH. The samples were made up to 250 μl with 5% B, 230 μl of the solution were transferred into a HPLC vial, and 220 μl were injected.
RP-HPLC analysis was carried out with a linear acetonitrile gradient (Biosolve BV, Valkenswaard, Netherlands) in the presence of 0.1% trifluoroacetic acid (TFA, UV grade, Fluka Chemie GmbH, Buchs, Switzerland) as ion-pair reagent. The fractions were co-crystallised with α-cyanohydroxycinnamic acid (Bruker Daltonik GmbH; Bremen, Germany) as matrix (4 mg/ml in 60% acetonitrile in 0.1% aqueous TFA) and analysed with a tandem mass spectrometer (MALDI-TOF/TOF-MS, 4700 Proteomics Analyzer; Applied Biosystems GmbH, Weiterstadt, Germany) in positive-ion reflector mode. The amount of intact peptides and their degradation products or metabolites could thus be identified and quantified at the individual times. 25% aqueous mouse serum, which was analysed in parallel for the same time intervals, was used as control.

[3] = test system: Escherichia coli strain BL21AI; assay: Minimum inhibitory concentration in TSB in the presence of 25% mouse serum; assay type: cell-based; settings: E. coli BL21AI, TSB with 25% mouse serum, 20 hours at 37° C.
Method: as §1
In addition, the antibacterial activity was also determined in the presence of 25% mouse serum. To that end, the MIC values were determined as described above, but 25 μl of mouse serum were also added to each well before the incubation (25% final concentration).

mouse serum (100%) = settings: 37° C., up to 6 hours

Row | Molecule | MIC in TSB [1] | Half-life (t1/2) in serum [2] | also measured
1 | tPEG^750-GAR-VDKPPYLPRPRPHypRHypTleYNO-NH2 (tPEG750-GARVDKPPYLPRPRP[Hyp]R[Hyp][Tle]YN[Orn]-NH2; not fully specified) [tPEG^750-GAR-Onc 110] | 48.4 µM |  | uncleaved peptide remaining after the indicated time (instead of half-life) ([2]; 6 h): 64%
2 | Guan-OO(sPEG^750-GAARSG)NRPVYIPRPRPPHPRL-OH (Guan-[Orn][Orn]NRPVYIPRPRPPHPRL-OH; not fully specified (residue 2)) [Api 300 (sPEG^750-GAARSG)] | 2.8 µM | 45 min | 
3 | Guan-OO(tPEG^750-GRSG)NRPVYIPRPRPPHPRL-OH (Guan-[Orn][Orn]NRPVYIPRPRPPHPRL-OH; not fully specified (residue 2)) [Api 300 (tPEG^750-GRSG)] | 2.9 µM | 40 min | 
4 | Guan-ONO(tPEG^750-GARSG)RPVYIPRPRPPHPRL-OH ({Guan″}-[Orn]N[Orn]RPVYIPRPRPPHPRL-OH; not fully specified (residue 3)) [Api 301 (tPEG^750-GARSG)] | 1.5 µM | 45 min | 
5 | Guan-ONO(tPEG^5000-GAARSG)RPVYIPRPRPPHPRL-OH ({Guan″}-[Orn]N[Orn]RPVYIPRPRPPHPRL-OH; not fully specified (residue 3)) [Api 301 (tPEG^5000-GAARSG)] | >47.5 µM |  | uncleaved peptide remaining after the indicated time (instead of half-life) ([2]; 5 h): 78%
6 | Guan-OO(tPEG^750-GAARSG)NRPVYIPRPRPPHPRL-OH (Guan-[Orn][Orn]NRPVYIPRPRPPHPRL-OH; not fully specified (residue 2)) [Api 300 (tPEG^750-GAARSG)] | 2.8 µM | 35 min | 
7 | Guan-ONO(sPEG^750-GAARSG)RPVYIPRPRPPHPRL-OH ({Guan″}-[Orn]N[Orn]RPVYIPRPRPPHPRL-OH; not fully specified (residue 3)) [Api 301 (sPEG^750-GAARSG)] | 5.6 µM | 55 min | 
8 | H-GNNRPVYIPQPRPPHPRL-OH [Apidaecin 1b, reference compound] | 0.48 µM |  | MIC in TSB/mouse serum [3]: 1.75 µM
9 | CC[C@H](C)[C@H](NC(=O)[C@H](Cc1ccc(O)cc1)NC(=O)[C@@H](NC(=O)[C@@H]1CCCN1C(=O)[C@H](CCCNC(=N)N)NC(=O)[C@H](CC(N)=O)NC(=O)[C@H](CC(N)=O)NC(=O)[C@H](CCCN)N=C(N(C)C)N(C)C)C(C)C)C(=O)N1CCC[C@H]1C(=O)N[C@@H](CCCNC(=N)N)C(=O)N1CCC[C@H]1C(=O)N[C@@H](CCCNC(=N)N)C(=O)N1CCC[C@H]1C(=O)N1CCC[C@H]1C(=O)N[C@@H](Cc1c[nH]cn1)C(=O)N1CCC[C@H]1C(=O)N[C@@H](CCCNC(=N)N)C(=O)N[C@@H](CC(C)C)C(N)=O [Api 88, Guan-ONNRPVYIPRPRPPHPRL-NH2, reference compound] ({Orn(α-tetramethylguanidino)}-NNRPVYIPRPRPPHPRL-NH2) | 0.44 µM (≈ 1.01 µg/mL) |  | MIC in TSB/mouse serum [3]: 1.19 µM
10 | Guan-ONO(tPEG^5000-GARSG)RPVYIPRPRPPHPRL-OH ({Guan″}-[Orn]N[Orn]RPVYIPRPRPPHPRL-OH; not fully specified (residue 3)) [Api 301 (tPEG^5000-GARSG)] | 9.2 µM |  | uncleaved peptide remaining after the indicated time (instead of half-life) ([2]; 6 h): 62%
11 | Guan-ONO(tPEG^750-GAARSG)RPVYIPRPRPPHPRL-OH ({Guan″}-[Orn]N[Orn]RPVYIPRPRPPHPRL-OH; not fully specified (residue 3)) [Api 301 (tPEG^750-GAARSG)] | 2.8 µM | 50 min | 
12 | CC[C@H](C)[C@H](NC(=O)[C@H](Cc1ccc(O)cc1)NC(=O)[C@@H](NC(=O)[C@@H]1CCCN1C(=O)[C@H](CCCNC(=N)N)NC(=O)[C@H](CC(N)=O)NC(=O)[C@H](CC(N)=O)NC(=O)[C@H](CCCN)N=C(N(C)C)N(C)C)C(C)C)C(=O)N1CCC[C@H]1C(=O)N[C@@H](CCCNC(=N)N)C(=O)N1CCC[C@H]1C(=O)N[C@@H](CCCNC(=N)N)C(=O)N1CCC[C@H]1C(=O)N1CCC[C@H]1C(=O)N[C@@H](Cc1c[nH]cn1)C(=O)N1CCC[C@H]1C(=O)N[C@@H](CCCN)C(=O)N[C@@H](CC(C)C)C(N)=O [Api 134, Guan-ONNRPVYIPRPRPPHPOL-NH2, reference compound] ({Orn(α-tetramethylguanidino)}-NNRPVYIPRPRPPHP[Orn]L-NH2) | 1.78 µM (≈ 4 µg/mL) |  | MIC in TSB/mouse serum [3]: 7.12 µM
13 | Guan-OO(tPEG^5000-GRSG)NRPVYIPRPRPPHPRL-OH (Guan-[Orn][Orn]NRPVYIPRPRPPHPRL-OH; not fully specified (residue 2)) [Api 300 (tPEG^5000-GRSG)] | >44.8 µM |  | uncleaved peptide remaining after the indicated time (instead of half-life) ([2]; 6 h): 75%
14 | Guan-ONO(sPEG^750-GRSG)RPVYIPRPRPPHPRL-OH ({Guan″}-[Orn]N[Orn]RPVYIPRPRPPHPRL-OH; not fully specified (residue 3)) [Api 301 (sPEG^750-GRSG)] | 1.5 µM | 30 min | 
15 | tPEG^5000-GAR-VDKPPYLPRPRPHypRHypTleYNO-NH2 (tPEG5000-GARVDKPPYLPRPRP[Hyp]R[Hyp][Tle]YN[Orn]-NH2) [tPEG^5000-GAR-Onc 110] |  |  | uncleaved peptide remaining after the indicated time (instead of half-life) ([2]; 6 h): 96%
16 | Guan-ONO(tPEG^5000-GRSG)RPVYIPRPRPPHPRL-OH ({Guan″}-[Orn]N[Orn]RPVYIPRPRPPHPRL-OH; not fully specified (residue 3)) [Api 301 (tPEG^5000-GRSG)] | >38 µM |  | uncleaved peptide remaining after the indicated time (instead of half-life) ([2]; 6 h): 75%
17 | Guan-ONO(tPEG^750-GRSG)RPVYIPRPRPPHPRL-OH (Guan-[Orn]N[Orn]RPVYIPRPRPPHPRL-OH; not fully specified (residue 3)) [Api 301 (tPEG^750-GRSG)] | 2.9 µM | 55 min | 
18 | Guan-OO(tPEG^750-GARSG)NRPVYIPRPRPPHPRL-OH (Guan-[Orn][Orn]NRPVYIPRPRPPHPRL-OH; not fully specified (residue 2)) [Api 300 (tPEG^750-GARSG)] | 1.5 µM | 45 min | 
19 | CC[C@H](C)[C@H](NC(=O)[C@H](CCCN)NC(=O)[C@H](CCCNC(=N)N)NC(=O)[C@@H]1CCCN1C(=O)[C@@H]1CCCN1C(=O)[C@H](CCCNC(=N)N)NC(=O)[C@@H]1CCCN1C(=O)[C@H](CCCNC(=N)N)NC(=O)[C@@H]1CCCN1C(=O)[C@H](CC(C)C)NC(=O)[C@H](Cc1ccc(O)cc1)NC(=O)[C@@H]1CCCN1C(=O)[C@@H]1CCCN1C(=O)[C@H](CCCCN)NC(=O)[C@H](CC(=O)O)NC(=O)[C@@H](N)C(C)C)C(=O)N[C@@H](Cc1ccc(O)cc1)C(=O)N[C@@H](CC(N)=O)C(=O)N[C@@H](CCCN)C(N)=O [Onc 72, VDKPPYLPRPRPPROIYNO-NH2] (H-VDKPPYLPRPRPPR[Orn]IYN[Orn]-NH2) | 1.7 µM (≈ 3.92 µg/mL) |  | MIC in TSB/mouse serum [3]: 1.7 µM
20 | Guan-OO(tPEG^5000-GAARSG)NRPVYIPRPRPPHPRL-OH (Guan-[Orn][Orn]NRPVYIPRPRPPHPRL-OH; not fully specified (residue 2)) [Api 300 (tPEG^5000-GAARSG)] | 25.4 µM |  | uncleaved peptide remaining after the indicated time (instead of half-life) ([2]; 6 h): 76%
21 | Guan-OO(tPEG^750-GAARSG)NRPVYIPRPRPPHPRL-OH |  |  | cleaved bond (mouse serum (100%)): R-S
